# According to patent publication US6358942B1, “Phenyloxazolidinones having a c-c bond 4-8 membered heterocyclic rings” (Pharmacia & Upjohn Company, priority 1995, dated 2002):
# Test system: Staphylococcus aureus or Streptococcus species
# Experiment: Murine Assay: in vivo antimicrobial activity, survival of mice infected intraperitoneally with bacteria
# Details: not given
# Description: Antimicrobial activity was tested in vivo using the Murine Assay procedure. Groups of female mice (six mice of 18-20 grams each) were injected intraperitoneally with bacteria which were thawed just prior to use and suspended in brain heart infusion with 4% brewers yeast (Staphylococcus aureus) or brain heart infusion (Streptococcus species). Antibiotic treatment at six dose levels per drug was administered one hour and five hours after infection by either oral intubation or subcutaneous routes. Survival was observed daily for six days. ED50 values based on mortality ratios were calculated using probit analysis. The subject compounds are compared against well-known antimicrobials vancomycin and U-100592 as controls. See “Upjohn Oxazolidinone Antibacterial Agent”, posters presented at the 35th Interscience Conference on Antimicrobial Agents and Chemotherapy.
row,SMILES,ED50
1,"COC(=O)N1CC=C(c2ccc(N3C[C@H](CNC(C)=O)OC3=O)cc2F)CC1 [Example 57, (S)-(−)-4-[4-[5-[(Acetylamino)methyl]-2-oxo-3-oxazolidinyl]-2-fluorophenyl]-3,6-dihydro-1(2H)-pyridinecarboxylic acid methyl ester]",6.2 mg/kg
2,"COC(=O)N1CC=C(c2ccc(N3C[C@H](CNC(C)=O)OC3=O)cc2)CC1 [Example 62, (S)-(−)-4-[4-[5-[(Acetylamino)methyl]-2-oxo-3-oxazolidinyl]phenyl]-3,6-dihydro-1(2H)-pyridinecarboxylic acid methyl ester]",12 mg/kg
3,"COC(=O)N1CC(c2ccc(N3C[C@H](CNC(C)=O)OC3=O)cc2F)C1 [Example 83, (S)-N-[[3-[3-Fluoro-4-[1-(methoxycarbonyl)-3-azetidinyl]phenyl]-2-oxo-5-oxazolidinyl]methyl]acetamide]",7.5 mg/kg

# Same assay, conditions: Table 1; female mice; treatment 1 h and 5 h after infection, oral intubation or subcutaneous; survival over six days; probit analysis of mortality ratios
row,SMILES,ED50
1,"CC(=O)NC[C@H]1CN(c2ccc(C3=CCN(C(=O)CO)CC3)c(F)c2)C(=O)O1 [Example 40, (S)-(−)-N-[[3-[4-[1-(Hydroxyacetyl)-3,6-dihydro-2H-pyridin-4-yl]-3-fluoropheny]-2-oxo-5-oxazolidinyl]methyl]acetamide]",1.00 mg/kg
2,"CC(=O)NC[C@H]1CN(c2ccc(C3=CCOCC3)c(F)c2)C(=O)O1 [Example 47, (S)-(−)-N-[[3-[4-(3,6-Dihydro-2H-pyran-4-yl)-3-fluoropheny]-2-oxo-5-oxazolidinyl]methyl]acetamide]",7.10 mg/kg

# Same assay, conditions: Table 1; female mice; treatment 1 h and 5 h after infection, oral intubation or subcutaneous; survival over six days; probit analysis of mortality ratios; read-out: ED50
row,SMILES,ED50
1,"CC(=O)NC[C@H]1CN(c2ccc(C3CCN(C(=O)c4cc5ccccc5[nH]4)CC3)c(F)c2)C(=O)O1 [Example 23, (S)-(−)-N-[[3-[4-[1-(Indole-2-carbonyl)-4-piperidinyl]-3-fluorophenyl]-2-oxo-5-oxazolidinyl]methyl]acetamide]",> 20 mg/kg
2,"CC(=O)NC[C@H]1CN(c2ccc(C3CCN(C(=O)c4ccno4)CC3)c(F)c2)C(=O)O1 [Example 24, (S)-(−)-N-[[3-[4-[1-(Isoxazole-5-carbonyl)-4-piperidinyl]-3-fluorophenyl]-2-oxo-5-oxazolidinyl]methyl]acetamide]",> 20 mg/kg
3,"CC(=O)NC[C@H]1CN(c2ccc(C3CCN(CCF)CC3)c(F)c2)C(=O)O1 [Example 28, (S)-(−)-N-[[3-[4-[1-(2-Fluoroethyl)-4-piperidinyl]-3-fluorophenyl]-2-oxo-5-oxazolidinyl]methyl]acetamide]",15.3 mg/kg
4,"CC(=O)NC[C@H]1CN(c2ccc(C3CCN(C=O)CC3)c(F)c2)C(=O)O1 [Example 29, (S)-(−)-N-[[3-[4-[1-(Formyl)-4-piperidinyl]-3-fluorophenyl]-2-oxo-5-oxazolidinyl]methyl]acetamide]",5 mg/kg
5,"O=C(NC[C@H]1CN(c2ccc(C3CCN(C(=O)CO)CC3)c(F)c2)C(=O)O1)C(Cl)Cl [Example 33, (S)-(−)-2,2-Dichloro-N-[[2-oxo-3-[3-fluoro-4-[1-(hydroxyacetyl)-4-piperidinyl]phenyl]-5-oxazolidinyl]methyl]acetamide]",10.6 mg/kg
6,"CC(=O)NC[C@H]1CN(c2ccc(C3CCN(C(=O)COC(C)=O)CC3)c(F)c2)C(=O)O1 [Example 34, (S)-(−)-N-[[2-Oxo-3-[3-fluoro-4-[1-[(acetoxy)acetyl]-4-piperidinyl]phenyl]-5-oxazolidinyl]methyl]acetamide]",6.3 mg/kg
7,"CC(=O)NC[C@H]1CN(c2cc(F)c(C3CCN(C(=O)CO)CC3)c(F)c2)C(=O)O1 [Example 37, (S)-(−)-N-[[3-[4-[1-(Hydroxyacetyl)-4-piperidinyl]-3,5-difluorophenyl]-2-oxo-5-oxazolidinyl]methyl]acetamide]",8.7 mg/kg
8,"CC(=O)NC[C@H]1CN(c2ccc(C3=CCN(C(=O)COC(C)=O)CC3)c(F)c2)C(=O)O1 [Example 39, (S)-(−)-N-[[2-Oxo-3-[3-fluoro-4-[-1-[(acetoxy)acetyl]-3,6-dihydro-2H-pyridin-4-yl]phenyl]-5-oxazolidinyl]methyl]acetamide]",3 mg/kg
9,"CC(=O)NC[C@H]1CN(c2ccc(C3CCN(C(=O)CO)C3)c(F)c2)C(=O)O1 (stereo partly drawn) [Example 44, (5S)-N-[[3-[3-Fluoro-4-[1-(hydroxyacetyl)-3-pyrrolidinyl]phenyl]-2-oxo-5-oxazolidinyl]methyl]acetamide]",5 mg/kg

# Same assay, conditions: Table 2; female mice; treatment 1 h and 5 h after infection, oral intubation or subcutaneous; survival over six days; probit analysis of mortality ratios
row,SMILES,ED50
1,"COC(=O)N1CCC(c2ccc(N3C[C@H](CNC(C)=O)OC3=O)cc2F)C1 (stereo partly drawn) [Example 46, (5S)-3-[4-[5-[(Acetylamino)methyl]-2-oxo-3-oxazolidinyl]-2-fluoropheny]-1-pyrrolidinecarboxylic acid methyl ester]",7.90 mg/kg
2,"CC(=O)NC[C@H]1CN(c2ccc(C3CCOCC3)c(F)c2)C(=O)O1 [Example 48, (S)-(−)-N-[[3-[4-[Tetrahydro-2H-pyran-4-yl]-3-fluoropheny]-2-oxo-5-oxazolidinyl]methyl]acetamide]",17.50 mg/kg
3,"CC(=O)NC[C@H]1CN(c2ccc(C3=CCSCC3)c(F)c2)C(=O)O1 [Example 49, (S)-(−)-N-[[3-[4-(3,6-Dihydro-2H-thiopyran-4-yl)-3-fluoropheny]-2-oxo-5-oxazolidinyl]methyl]acetamide]",2.40 mg/kg
4,"CC(=O)NC[C@H]1CN(c2ccc(C3=CCS(=O)(=O)CC3)c(F)c2)C(=O)O1 [Example 50, (S)-(−)-N-[[3-[4-(3,6-Dihydro-2H-thiopyran-4-yl)-3-fluoropheny]-2-oxo-5-oxazolidinyl]methyl]acetamide S,S-dioxide]",2.20 mg/kg
5,"CC(=O)NC[C@H]1CN(c2ccc(C3CCS(=O)(=O)CC3)c(F)c2)C(=O)O1 [Example 51, (S)-(−)-N-[[3-[3-Fluoro-4-(tetrahydro-2H-thiopyran-4-yl)phenyl]-2-oxo-5-oxazolidinyl]methyl]acetamide S,S-dioxide]",2.80 mg/kg
6,"CC(=O)NC[C@H]1CN(c2ccc(C3=CCS(=O)(=O)CC3)cc2)C(=O)O1 [Example 55, (S)-(−)-N-[[3-[4-(3,6-Dihydro-2H-thiopyran-4-yl)phenyl]-2-oxo-5-oxazolidinyl]methyl]acetamide S,S-dioxide]",2.30 mg/kg
7,CC(=O)NC[C@H]1CN(c2ccc(C3=CCN(C=O)CC3)c(F)c2)C(=O)O1 [Example 56],4.40 mg/kg
8,"CC(=O)NC[C@H]1CN(c2ccc(C3=CC[S+]([O-])CC3)c(F)c2)C(=O)O1 (stereo partly drawn) [Example 63, (S)-(−)-N-[[3-[4-(3,6-Dihydro-2H-thiopyran-4-yl)-3-fluoropheny]-2-oxo-5-oxazolidinyl]methyl]acetamide S-oxide]",4.90 mg/kg
9,"CC(=O)NC[C@H]1CN(c2ccc(C3=CC[S+]([O-])CC3)cc2)C(=O)O1 (stereo partly drawn) [Example 64, (S)-(−)-N-[[3-[4-(3 6-Dihydro-2H-thiopyran-4-yl)phenyl]-2-oxo-5-oxazolidinyl]methyl]acetamide S-oxide]",4.60 mg/kg
10,"CC(=O)NC[C@H]1CN(c2ccc(C3=CCCN(C(=O)CO)C3)c(F)c2)C(=O)O1 [Example 71, (S)-N-[[3-[4-[1-(Hydroxyacetyl)-5,6-dihydro-2H-pyridin-3yl]-3-fluoropheny]-2-oxo-5-oxazolidinyl]methyl]acetamide]",13.4 mg/kg

# Same assay, conditions: Table 2; female mice; treatment 1 h and 5 h after infection, oral intubation or subcutaneous; survival over six days; probit analysis of mortality ratios; read-out: ED50
row,SMILES,ED50
1,"CC(=O)NC[C@H]1CN(c2ccc(C3=CCOCC3)cc2)C(=O)O1 [Example 52, (S)-(−)-N-[[3-[4-(3,6-Dihydro-2H-pyran-4-yl)phenyl]-2-oxo-5-oxazolidinyl]methyl]acetamide]",4 mg/kg
2,"CC(=O)NC[C@H]1CN(c2ccc(C3CCOCC3)cc2)C(=O)O1 [Example 53, (S)-(−)-N-[[3-[4-[Tetrahydro-2H-pyran-4-yl]phenyl]-2-oxo-5-oxazolidinyl]methyl]acetamide]",> 20 mg/kg
3,"CC(=O)NC[C@H]1CN(c2ccc(C3=CCSCC3)cc2)C(=O)O1 [Example 54, (S)-(−)-N-[[3-[4-(3,6-Dihydro-2H-thiopyran-4-yl)phenyl]-2-oxo-5-oxazolidinyl]methyl]acetamide]",6.6 mg/kg
4,"CC(=O)NC[C@H]1CN(c2ccc(C3=CCN(C(=O)COC(C)=O)CC3)cc2)C(=O)O1 [Example 59, (S)-(−)-N-[[2-Oxo-3-[4-[1-[(acetoxy)acetyl]-3,6-dihydro-2H-pyridin-4-yl]phenyl]-5-oxazolidinyl]methyl]acetamide]",4.2 mg/kg
5,"CC(=O)NC[C@H]1CN(c2ccc(C3=CCN(C(=O)CO)CC3)cc2)C(=O)O1 [Example 60, (S)-(−)-N-[[3-[4-[1-(Hydroxyacetyl)-3,6-dihydro-2H-pyridin-4-yl]phenyl]-2-oxo-5-oxazolidinyl]methyl]acetamide]",3.1 mg/kg
6,"CC(=O)NC[C@H]1CN(c2ccc(C3=CCN(C=O)CC3)cc2)C(=O)O1 [Example 61, (S)-(−)-N-[[3-[4-[1-(Formyl)-3,6-dihydro-2H-pyridin-4-yl]phenyl]-2-oxo-5-oxazolidinyl]methyl]acetamide]",6.1 mg/kg
7,"CC(=O)NC[C@H]1CN(c2ccc(C3(F)CCN(C=O)CC3)c(F)c2)C(=O)O1 [Example 74, (S)-(−)-N-[[3-[4-[1-Formyl-4-fluoro-4-piperidinyl]-3-fluorophenyl]-2-oxo-5-oxazolidinyl]methyl]acetamide]",10.3 mg/kg
8,"CC(=O)NC[C@H]1CN(c2ccc(C3=CCN(C(=O)CO)CCC3)c(F)c2)C(=O)O1 [Example 76, (S)-(−)-N-[[3-[4-[1-(Hydroxyacetyl)-2,3,4,7-tetrahydro-1H-azepin-5-yl]-3-fluorophenyl]-2-oxo-5-oxazolidinyl]methyl]acetamide]",> 20 mg/kg
9,"CC(=O)NC[C@H]1CN(c2ccc(C3=CCCN(C(=O)CO)CC3)c(F)c2)C(=O)O1 [Example 78, (S)-(−)-N-[[3-[4-[1-(Hydroxyacetyl)-2,3,6,7-tetrahydro-1H-azepin-4-yl]-3-fluorophenyl]-2-oxo-5-oxazolidinyl]methyl]acetamide]",6 mg/kg
